Source: patent publication US7217527B2, “Assay for phosphodiesterase function” (Vanderbilt University, priority 2003, dated 2007)

Legend:
[1] = target: T1, isolated regulatory domain of PDE5 (Homo sapiens, UniProt O76074); format: binding
T1 construct: made in house
Procedure: Reactions were incubated on an ice water bath for 20 min. […] Tubes were each rinsed with 3 ml of the same buffer and filtered. The filter membranes were removed and placed into slots of a scintillation vial box for subsequent drying. The vial box was placed into a glassware dryer for 10 min, and dried papers were transferred to 6 ml scintillation vials. Five ml non-aqueous scintillant was added, and papers were counted in a scintillation counter.

crude human lung extract = target: T2, crude human lung extract (Homo sapiens, UniProt O76074); test: [^3H]sildenafil binding in DEAE-Sephacel fractions of crude human lung extract (FIG. 5); settings: 16 nM [^3H]sildenafil
T2 construct: from tissue; host or cells: human lung (explanted lung of transplant patients), supernatant fractionated on DEAE-Sephacel
Procedure: 5 g human lung was thawed, cut into small pieces and homogenized in 80 ml 2.5 mM potassium phosphate (pH 6.8) containing 0.25 mM EDTA, 0.025 mM IBMX, 4 mM β-mercaptoethanol, and 1 mM CaCl2 with a Cuisinart apparatus (high speed) using 3 bursts of 15 sec each at 4° C. After centrifugation in a Beckman JA-20 rotor for 30 min at 10,000×g, 72 ml supernatant was applied to a DEAE-Sephacel column (0.9×10 cm) equilibrated in KPM and the column was washed with 20 ml of KPM containing 20 mM NaCl and 1 mM CaCl2. The column was developed with a linear (20–280 mM) NaCl gradient in KPM containing 1 mM CaCl2. […] PKG activity was determined in the presence of 2 μM cGMP as described in Materials and Methods.

GAF domains of PDE5 = GAF domains of PDE5 (Homo sapiens, UniProt O76074); settings: cited from earlier work
PDE5 = PDE5 (Homo sapiens, UniProt O76074); settings: read-out: Km for the catalytic site; cited from earlier work
[2] = tested on: second peak of cGMP PDE activity (human lung extract); settings: 40 pmol/ml sildenafil; 0.4 μM [^3H]cGMP substrate
Procedure: PKG activity was determined in the presence of 2 μM cGMP as described in Materials and Methods.
PDE activity was determined by a modified assay (Martins et al., 1982) as described earlier (Gopal et al., 2001) using 0.4 μM [^3H]cGMP as substrate. PKG activity was determined in the presence of 2 μM cGMP as described (Gopal et al., 2001).

Compound: CCCc1nn(C)c2c(=O)[nH]c(-c3cc(S(=O)(=O)N4CCN(C)CC4)ccc3OCC)nc12 [[^3H]sildenafil]
- binding to isolated regulatory domain of PDE5 [1]: did not detectably bind
- [^3H]sildenafil-binding activity other than the PDE5 peak (crude human lung extract): no other significant peak

Compound: Nc1nc2c(ncn2[C@@H]2O[C@@H]3COP(=O)(O)O[C@H]3[C@H]2O)c(=O)[nH]1 [cGMP]
- Kd (GAF domains of PDE5): 200 nM
- Km (PDE5): 5 µM

Compound: CCCc1nn(C)c2c(=O)[nH]c(-c3cc(S(=O)(=O)N4CCN(C)CC4)ccc3OCC)nc12 [sildenafil]
- competition with [^3H]cGMP for binding to the GAF domains of PDE5 (GAF domains of PDE5; even at high concentrations (Turko et al., 1999)): does not compete
- inhibition of second peak of cGMP PDE activity [2]: not inhibited
